According to patent US5576296A, “Galanin antagonist” (priority 1991, dated 1996):
Square brackets hold non-standard residues; d marks the D form. Ends that are not written are not given here. Peptide text beside a SMILES is read from it.

What was measured:
galanin receptor [1] = test: Displacement of 125I-galanin, membranes from rat hypothalamus; assay type: binding; settings: for IC50: displacement experiments in rat hypothalamus, 125I-galanin
Method: Adult male rats (Sprague-Dawley, 180-200 g) were decapitated, the hypothalami quickly dissected and homogenized (10% mass/vol.) in 0.05M TRIS-Cl buffer, pH 7.4. The homogenate was diluted tenfold and centrifuged at 1000 × g for 10 min. The supernatant was centrifuged at 10,000 × g for 45 min and the pellet resuspended in 5 mM Hepes buffered Krebs-Ringer solution (137 mM NaCl, 2.68 mM KCl, 1.8 mM CaCl2 1 g/1 glucose), pH 7.4 to yield a final protein concentration of 1.0-1.5 mg/ml.
Displacement experiments were carried out in a final volume of 400 μl of Hepes-buffered (5 mM) Krebs-Ringer solution, 0.05% (w/v) of BSA (pH 7.4 ) supplemented with bacitracin (1 mg/ml ) in the presence of 0.1-0.2 nM 1251-galanin, the membrane preparation from rat hypothalami and increasing concentrations (10-12, 10^-6M) of unlabeled galanin or of other galanin recepto-ligands. Samples were incubated for 30 min at 37° C. Incubation was terminated by the addition of 10 ml of ice-cold Hepes-buffered Krebs-Ringer solution, followed by rapid filtration over Whatman GF/C filters, precoated for 5-6 hours in 0.3% (v/v) of polyethylencimine solution. The filters were washed with 10 ml of assay solution. Radioactivity retained on the filters was determined in a Packard gamma counter. Specific binding was defined as that displaceable by 1 μM galanin.
The 1C50 values of the displacing ligands were calculated by fitting of the experimental data on a Macintosh SE by means of a nonlincar least squares method using the program "KaleidaGraph".

galanin receptor [2] = test: Displacement of 125I-galanin from membranes of Rin m 5F cells; assay type: binding, rat; settings: Rin m 5F membranes
Method: 4) Ligand binding studies were conducted. Displacement of ^125 I-galanin by galanin, galanin fragment (1-13), Substance P fragment (4-11), galanin fragment (1-13) + Substance P fragment (4-11) in equimolar concentrations and the peptides of the invention M15, M35 and M34, A was studied.
Synthetic porcine galanin(1-29) was iodinated by chloramine-T-method to yield ^125 I-monoiodo-Tyr^26 -porcine galanin (specific activity 1800-2000 Ci/mmol), (as described by Land T., et al in: Methods in Neurosciences, Ed. M. Conn, 5, 1991, 225-234), and employed in ligand binding studies carried out at equilibrium.
The establishment and cell culture of Rin m 5F (a rat pancreatic β-tumor cell-line) cells have been described earlier (Gazdav A. F., et. al. Proc. Natl. Acad. Sci. USA, 77 (1980) 3519-3523). Briefly, the cells were grown in RPMI-1640 (Gibco) medium containing 10% (v/v) fetal calf serum, 2.06 mM L-gluthamine, 100 IU/ml penicillin and 100 μg/ml streptomycin in 10% CO2 -90% air 37° C. They were passaged every 5 days. The cells were detached from the surface of the bottles using 0.25% trypsin containing 1 mM EDTA and centrifuged at 2000 × g for 5 min at 4° C. The pellet was exposed for 15 min to hypoosmotic 5 mM HEPES buffer (pH 7.4). The suspension was centrifuged at 20000 × g for 15 min, the resulting pellet was resuspended in bacitracin-containing ([…]) 5 mM HEPES-buffered Krebs-Ringer solution (137 mM NaCl, […], 1.8 mM CaCl2, 1 g/1 glucose), pH 7.4, and used immediately in equilibrium binding experiments.
Displacement experiments were carried out in a final volume of 400 μl of bacitracin-containing (1 mg/ml) HEPES-buffered (5 mM) Krebs-Ringer solution, 0.05% (w/v) of BSA (pH 7.4) in the presence of 0.1-0.2 nM ^125 I-galanin, the membrane preparation and the increasing concentrations (10^-12 -10^-6 M) of unlabeled porcine galanin or of other galanin receptor ligands. Samples were incubated for 30 min at 37° C. Incubation was terminated by the addition of 10 ml of ice-cold HEPES-buffered Krebs-Ringer solution, followed by rapid filtration over Whatman GF/C filters, precoated for 5-6 hours in 0.3% (v/v) of polyethyleneimine solution. Filters were washed with 10 ml of assay solution. Radioactivity retained on the filters was determined in a Packard gamma counter. Specific binding was defined as that displaceable by 1 μM galanin (or appropriate concentration of a displacer).
The IC50 values of the displacing ligands were calculated from the computer-generated IC50 values as described by Land, T., et. al. (ibid).
Fitting of the experimental data was carried out on a Macintosh SE by means of a nonlinear least squares method using the Macintosh program "KaleidGraph".

CC(C)C[C@H](NC(=O)[C@H](CC(C)C)NC(=O)[C@H](Cc1ccc(O)cc1)NC(=O)CNC(=O)[C@H](C)NC(=O)[C@H](CO)NC(=O)[C@H](CC(N)=O)NC(=O)[C@H](CC(C)C)NC(=O)[C@@H](NC(=O)[C@H](Cc1c[nH]c2ccccc12)NC(=O)CN)[C@@H](C)O)C(=O)NCC(=O)N1CCC[C@H]1C(=O)N1CCC[C@H]1C(=O)N1CCC[C@H]1C(=O)NCC(=O)N[C@@H](Cc1ccccc1)C(=O)N[C@@H](CO)C(=O)N1CCC[C@H]1C(=O)N[C@@H](Cc1ccccc1)C(=O)N[C@@H](CCCNC(=N)N)C(N)=O [M 35, Galanin(1-13)-Bradykinin(2-9) amide]
IC50 (galanin receptor [1]): 0.2 nM
IC50 (galanin receptor [2]; read-out: IC50): 0.1 nM

CC[C@H](C)[C@H](NC(=O)[C@H](Cc1ccc(O)cc1)NC(=O)[C@H](Cc1c[nH]cn1)NC(=O)[C@H](CCCNC(=N)N)NC(=O)[C@@H]1CCCN1C(=O)CNC(=O)[C@H](CC(C)C)NC(=O)[C@H](CC(C)C)NC(=O)[C@H](Cc1ccc(O)cc1)NC(=O)CNC(=O)[C@H](C)NC(=O)[C@H](CO)NC(=O)[C@H](CC(N)=O)NC(=O)[C@H](CC(C)C)NC(=O)[C@@H](NC(=O)[C@H](Cc1c[nH]c2ccccc12)NC(=O)CN)[C@@H](C)O)C(=O)N[C@@H](CC(N)=O)C(=O)N[C@@H](CC(C)C)C(=O)N[C@H](C(=O)N[C@H](C(=O)N[C@@H](CCCNC(=N)N)C(=O)N[C@@H](CCC(N)=O)C(=O)N[C@@H](CCCNC(=N)N)C(=O)N[C@@H](Cc1ccc(O)cc1)C(N)=O)[C@@H](C)O)[C@@H](C)CC [M 32, Galanin(1-13)-NPY(25-36) amide]
IC50 (galanin receptor [1]): 0.05 nM

GWTLNSAGYLLGARHYINLITRQRY-NH2 [M 88, Galanin(1-12)-Ala-NPY(25-36) amide]
IC50 (galanin receptor [1]): 1 nM

GWTLNSAGYLLGPPPYGGFL-NH2 [M 36, Galanin(1-12)-ProProPro-Leuenkephalin(1-5) amide]
IC50 (galanin receptor [1]): 40 nM

GWTLNSAGYLLGPPPLFGGY-NH2 [M36,A, Galanin(1-12)-ProProPro-Leuenkephalin(5-1) amide]
IC50 (galanin receptor [1]): 20 nM

CC(C)C[C@H](NC(=O)[C@H](CC(C)C)NC(=O)[C@H](Cc1ccc(O)cc1)NC(=O)CNC(=O)[C@H](C)NC(=O)[C@H](CO)NC(=O)[C@H](CC(N)=O)NC(=O)[C@H](CC(C)C)NC(=O)[C@@H](NC(=O)[C@H](Cc1c[nH]c2ccccc12)NC(=O)CN)[C@@H](C)O)C(=O)NCC(=O)N1CCC[C@H]1C(=O)O [Galanin fragment (1-13), reference compound]
IC50 (galanin receptor [2]; read-out: IC50): 100 nM

Rat galanin: galanin of rat sequence, unlabeled displacer [reference compound]
Displacement curves, rat versus porcine galanin (galanin receptor [1]; membranes from rat hypothalami): indistriguishable displacement curves

GWTLNSAGYLLGPPPALALA-NH2 [M 40, Galanin(1-12)- -ProProProAlaLeuAlaLeuAla amide]
IC50 (galanin receptor [1]): 13 nM

CC(C)C[C@H](NC(=O)[C@H](CC(C)C)NC(=O)[C@@H](Cc1c[nH]c2ccccc12)NC(=O)[C@H](Cc1ccccc1)NC(=O)[C@@H](Cc1c[nH]c2ccccc12)NC(=O)[C@H](CCC(N)=O)NC(=O)[C@H](CCC(N)=O)NC(=O)[C@@H]1CCCN1C(=O)[C@H](CCCCN)NC(=O)[C@@H]1CCCN1C(=O)[C@@H](CCCNC(=N)N)NC(=O)[C@@H]1CCCN1C(=O)CNC(=O)[C@H](CC(C)C)NC(=O)[C@H](CC(C)C)NC(=O)[C@H](Cc1ccc(O)cc1)NC(=O)CNC(=O)[C@H](C)NC(=O)[C@H](CO)NC(=O)[C@H](CC(N)=O)NC(=O)[C@H](CC(C)C)NC(=O)[C@@H](NC(=O)[C@H](Cc1c[nH]c2ccccc12)NC(=O)CN)[C@@H](C)O)C(N)=O [C 7, Galanin(1-12)-Pro-Spantide amide] (H-GWTLNSAGYLLGP[dR]PKPQQ[dW]F[dW]LL-NH2; N-terminus assumed)
IC50 (galanin receptor [1]): 0.2 nM

GWTLNSAGYLLGPALALALA-NH2 [M 38, Galanin(1-13)-AlaLeuAlaLeuAlaLeuAla amide]
IC50 (galanin receptor [1]): 0.2 nM

GWTLNSAGYLLGPPPQQFFGLM-NH2 [M37, Galanin(1-12)-ProProPro-SP(5-11) amide]
IC50 (galanin receptor [1]): 40 nM

Substance P fragment (4-11): fragment 4-11 of Substance P (PQQFFGLM; ends and bridges not checked; UniProt P20366 61-68, looked up, fragment) [reference compound]
IC50 (galanin receptor [2]; read-out: IC50 (no displacement)): > 10000 nM

CC(C)C[C@H](NC(=O)[C@H](CC(C)C)NC(=O)[C@H](Cc1ccc(O)cc1)NC(=O)CNC(=O)[C@H](C)NC(=O)[C@H](CO)NC(=O)[C@H](CC(N)=O)NC(=O)[C@H](CC(C)C)NC(=O)[C@@H](NC(=O)[C@H](Cc1c[nH]c2ccccc12)NC(=O)CN)[C@@H](C)O)C(=O)NCC(=O)N1CCC[C@H]1C(=O)N[C@@H](CCCCNC(=O)[C@@H]1CCCN1C(=O)[C@H](CC(C)C)NC(=O)[C@H](Cc1ccccc1)NC(=O)CNC(=O)CNC(=O)[C@@H](N)Cc1ccc(O)cc1)C(N)=O [M34,A, Galanin(1-13)-Lys amide (Pro-Leuenkephalin(5-1))]
IC50 (galanin receptor [1]): 10 nM
IC50 (galanin receptor [2]; read-out: IC50): 10 nM

GWTLNSAGYLLGPPGFSPFR-NH2 [M20, Galanin(1-13)-Bradykinin(3-9) amide]
IC50 (galanin receptor [1]): 1 nM
